# Experiments:
# JAK2 V617F = biological target: T1, JAK2 V617F (Homo sapiens, UniProt O60674, V617F); assay: In vitro kinase activity assay (PKLight), JAK2 V617F mutant; format: biochemical
# T1 construct: purchased Invitrogen PV4347
# Experimental: (§1) All assays were carried out in 384-well white microtiter plates using the PKLight assay system from Cambrex (East Rutherford, N.J.). This assay platform is essentially a luminometric assay for the detection of ATP in the reaction using a luciferase-coupled reaction. For CDK2/Cyclin A assay, the reaction mixture consisted of the following components in 25 μL assay buffer (50 mM Hepes pH 7.5, 10 mM MgCl2, 5 mM MnCl2, 5 mM BGP, 1 mM DTT, 0.1 mM sodium orthovanadate), 1.4 μg/mL of CDK2/Cyclin A complex, 0.5 μM of RbING substrate (Invitrogen, Cat #PV2939) and 0.5 μM of ATP. The compounds were tested at 8 concentrations prepared from 4-fold serial dilution starting at 10 μM. The reaction was incubated at room temperature for 2 hr. 13 μL of PKLight ATP detection reagent was added and the reaction was incubated for 10 min. Luminescence signals were detected on a multi-label plate reader (Victor^2 V 1420, Perkin-Elmer). The other kinase assays were identical except for the following differences in reagents. For FLT3 assays, the reaction contained 2.0 μg/mL FLT3 enzyme, 5 μM of poly(Glu,Tyr) substrate (Sigma, Cat #P0275) and 4 μM of ATP. For JAK2 assays, the reaction contained 0.6 μg/mL of JAK2 enzyme, 2 μM of poly(Glu,Ala,Tyr) substrate (Sigma, Cat #P3899) and 0.2 μM of ATP. […] The analytical software, Prism 4.0 (GraphPad Software Pte Ltd) was used to generate IC50 values from the data.
# [1] = test system: HL60 (acute myeloid leukemia cell line); assay: Cell-based proliferation assay for GI50, HL60; settings: Homo sapiens, HL-60; HL60 cells, 96 h treatment
# Experimental: (§2) Human cancer cell lines HL60 (acute myeloid leukemia cell line), Colo205 (colon adenocarcinoma cell line), HEL92.1.7 (erythroleukemia cell line) and MV4-11 (acute myeloid leukemia cell line) were obtained from ATCC. They were cultivated in the media according to the ATCC work instructions. Colo205 cells were seeded in 96-wells plate at 5000 cells per well. HEL92.1.7 and MV4-11 cells were seeded at 6000 cells per well while HL60 cells were seeded at 8000 cells per well in 96 well plate. The plates were incubated at 37° C., 5% CO2, for 24 h. Cells were treated with compounds at various concentrations for 96 h. Cell growth was then monitored using Celltiter96 Aqueous One Solution Cell Proliferation Assay from Promega (Madison Wis.). Dose response curves were plotted to determine GI50 values for the compounds using XL-fit (ID Business Solution, Emeryville, Calif.).
# CDK2/CyclinA = biological target: T2, CDK2/CyclinA (Homo sapiens, UniProt P24941); assay: In vitro kinase activity assay (PKLight), CDK2/Cyclin A; format: biochemical; settings: 0.5 μM ATP
# T2 construct: purchased Invitrogen PV3267
# Experimental: The recombinant enzymes (CDK2/CyclinA, FLT3, JAK2 and JAK2 V617F) were purchased from Invitrogen (Cat #PV3267, 3182, 4210 and 4347 respectively). All assays were carried out in 384-well white microtiter plates using the PKLight assay system from Cambrex (East Rutherford, N.J.). This assay platform is essentially a luminometric assay for the detection of ATP in the reaction using a luciferase-coupled reaction. For CDK2/Cyclin A assay, the reaction mixture consisted of the following components in 25 μL assay buffer (50 mM Hepes pH 7.5, 10 mM MgCl2, 5 mM MnCl2, 5 mM BGP, 1 mM DTT, 0.1 mM sodium orthovanadate), 1.4 μg/mL of CDK2/Cyclin A complex, 0.5 μM of RbING substrate (Invitrogen, Cat #PV2939) and 0.5 μM of ATP. The compounds were tested at 8 concentrations prepared from 4-fold serial dilution starting at 10 μM. The reaction was incubated at room temperature for 2 hr. 13 μL of PKLight ATP detection reagent was added and the reaction was incubated for 10 min. Luminescence signals were detected on a multi-label plate reader (Victor^2 V 1420, Perkin-Elmer). The other kinase assays were identical except for the following differences in reagents. For FLT3 assays, the reaction contained 2.0 μg/mL FLT3 enzyme, 5 μM of poly(Glu,Tyr) substrate (Sigma, Cat #P0275) and 4 μM of ATP. For JAK2 assays, the reaction contained 0.6 μg/mL of JAK2 enzyme, 2 μM of poly(Glu,Ala,Tyr) substrate (Sigma, Cat #P3899) and 0.2 μM of ATP. For JAK2 V617F mutant assays, the reaction contained 8.0 μg/mL of JAK2 mutant enzyme, 2 μM of poly(Glu,Ala,Tyr) substrate (Sigma, Cat #P3899) and 0.2 μM of ATP. The analytical software, Prism 4.0 (GraphPad Software Pte Ltd) was used to generate IC50 values from the data.
# [2] = test system: HEL92.1.7 (erythroleukemia cell line); assay: Cell-based proliferation assay for GI50, HEL92.1.7; settings: Homo sapiens, HEL 92.1.7; HEL92.1.7 cells, 96 h treatment
# Experimental: as §2
# [3] = test system: MV4-11 (acute myeloid leukemia cell line); assay: Cell-based proliferation assay for GI50, MV4-11; settings: Homo sapiens; MV4-11 cells, 96 h treatment
# Experimental: as §2
# JAK2 = biological target: T3, JAK2 (Homo sapiens, UniProt O60674); assay: In vitro kinase activity assay (PKLight), JAK2; format: biochemical
# T3 construct: purchased Invitrogen PV4210
# Experimental: as §1
# [4] = test system: Colo205 (colon adenocarcinoma cell line); assay: Cell-based proliferation assay for GI50, Colo205; settings: Homo sapiens, COLO 205; Colo205 cells, 96 h treatment
# Experimental: as §2
# FLT3 = biological target: T4, FLT3 (Homo sapiens, UniProt P36888); assay: In vitro kinase activity assay (PKLight), FLT3; format: biochemical
# T4 construct: purchased Invitrogen PV3182
# T4 sequence (P36888 27-993): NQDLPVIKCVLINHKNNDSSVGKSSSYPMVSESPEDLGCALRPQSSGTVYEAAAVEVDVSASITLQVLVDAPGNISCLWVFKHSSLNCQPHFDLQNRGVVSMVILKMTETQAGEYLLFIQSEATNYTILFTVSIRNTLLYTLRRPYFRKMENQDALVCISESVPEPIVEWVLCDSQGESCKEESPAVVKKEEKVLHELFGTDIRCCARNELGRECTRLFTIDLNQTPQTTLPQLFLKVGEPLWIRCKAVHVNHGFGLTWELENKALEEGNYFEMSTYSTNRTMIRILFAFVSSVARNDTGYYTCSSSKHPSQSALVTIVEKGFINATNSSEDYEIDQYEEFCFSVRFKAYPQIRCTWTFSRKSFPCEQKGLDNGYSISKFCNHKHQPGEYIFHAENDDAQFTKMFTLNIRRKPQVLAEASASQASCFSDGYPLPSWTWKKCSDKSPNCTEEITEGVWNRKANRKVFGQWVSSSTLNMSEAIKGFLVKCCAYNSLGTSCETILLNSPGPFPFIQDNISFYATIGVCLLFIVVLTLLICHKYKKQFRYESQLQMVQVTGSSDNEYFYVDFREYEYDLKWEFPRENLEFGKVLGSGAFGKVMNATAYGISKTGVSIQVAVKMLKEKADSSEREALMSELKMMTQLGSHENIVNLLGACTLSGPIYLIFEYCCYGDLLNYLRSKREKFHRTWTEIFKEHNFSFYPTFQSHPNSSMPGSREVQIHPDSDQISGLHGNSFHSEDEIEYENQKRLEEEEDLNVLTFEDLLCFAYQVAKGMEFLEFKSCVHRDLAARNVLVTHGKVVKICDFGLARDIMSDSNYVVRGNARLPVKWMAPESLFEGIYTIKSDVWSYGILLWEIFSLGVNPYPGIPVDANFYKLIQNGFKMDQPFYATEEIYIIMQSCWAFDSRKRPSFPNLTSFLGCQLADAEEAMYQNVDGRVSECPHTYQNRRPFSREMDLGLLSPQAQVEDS
# Experimental: as §1
# T3 sequence (O60674 whole entry): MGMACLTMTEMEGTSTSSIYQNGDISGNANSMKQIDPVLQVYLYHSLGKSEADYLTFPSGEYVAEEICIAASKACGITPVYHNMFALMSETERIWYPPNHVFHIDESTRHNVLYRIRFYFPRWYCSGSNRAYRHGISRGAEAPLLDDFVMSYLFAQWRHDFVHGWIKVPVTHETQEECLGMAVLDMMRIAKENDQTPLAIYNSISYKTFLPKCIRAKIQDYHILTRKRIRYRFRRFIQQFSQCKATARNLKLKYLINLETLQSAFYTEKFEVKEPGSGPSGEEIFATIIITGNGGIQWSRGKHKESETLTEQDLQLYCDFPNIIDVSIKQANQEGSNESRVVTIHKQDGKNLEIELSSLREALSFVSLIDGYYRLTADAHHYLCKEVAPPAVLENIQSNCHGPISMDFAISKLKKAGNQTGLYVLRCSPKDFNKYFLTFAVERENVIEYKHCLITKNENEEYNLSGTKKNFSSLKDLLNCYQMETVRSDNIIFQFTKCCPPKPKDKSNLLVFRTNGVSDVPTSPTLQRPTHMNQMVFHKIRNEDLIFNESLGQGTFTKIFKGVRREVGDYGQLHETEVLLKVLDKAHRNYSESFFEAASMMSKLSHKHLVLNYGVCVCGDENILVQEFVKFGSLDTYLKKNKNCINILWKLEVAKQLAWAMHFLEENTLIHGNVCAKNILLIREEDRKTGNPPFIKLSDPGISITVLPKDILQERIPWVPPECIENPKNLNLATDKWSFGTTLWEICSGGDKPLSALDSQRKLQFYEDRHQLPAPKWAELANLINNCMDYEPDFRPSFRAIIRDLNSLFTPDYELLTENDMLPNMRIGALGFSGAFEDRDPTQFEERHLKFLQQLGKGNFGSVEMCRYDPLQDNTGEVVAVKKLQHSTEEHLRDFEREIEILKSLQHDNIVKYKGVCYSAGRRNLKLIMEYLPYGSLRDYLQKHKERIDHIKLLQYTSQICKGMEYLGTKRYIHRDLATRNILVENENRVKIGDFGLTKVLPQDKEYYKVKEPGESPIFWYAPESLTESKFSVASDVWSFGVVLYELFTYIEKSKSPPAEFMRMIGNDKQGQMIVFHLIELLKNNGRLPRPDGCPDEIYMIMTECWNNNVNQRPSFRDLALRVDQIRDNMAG
# T1 sequence (O60674 whole entry V617F): as the sequence (O60674 whole entry) above, with V617F counted along it
smiles,measurement,setting,value
COc1ccc2cc1COC/C=C/COCc1cc(ccc1OCCN1CCCC1)Nc1nccc-2n1 [Compound 14],IC50,JAK2 V617F,≤ 1000 nM
same,GI50,[1],≤ 1000 nM
same,IC50,CDK2/CyclinA,> 5000 nM
same,GI50,[2],≤ 1000 nM
same,GI50,[3],≤ 1000 nM
same,IC50,JAK2,≤ 1000 nM
same,GI50,[4],1000 to 5000 nM
same,IC50,FLT3,≤ 1000 nM

# From US9573964B2, “Oxygen linked pyrimidine derivatives” (CTI BIOPHARMA CORP., priority 2005, dated 2017)
